# Experimental data as given in paper PMC10698726 (Molecular Pharmaceutics, 2023).
# Values joined by “and” are separate entries in the source; they are usually repeats but may differ in a detail not shown here. Identical values can stand only once. Like-named read-outs stand apart in the source and are kept apart here.
# Tests used:
# OCT3 = target: T1, OCT3 (Homo sapiens, UniProt O75751); experiment: Inhibition of model substrate uptake in OCT3-overexpressing HEK293 cells; format: cell-based; conditions: for IC50: read-out: IC50; for x-fold Stereoselectivity: ratio of the IC50 values of the two enantiomers of the drug
# T1 construct: expressed in transfected cells; host or cells: HEK293
# T1 sequence (O75751 1-556): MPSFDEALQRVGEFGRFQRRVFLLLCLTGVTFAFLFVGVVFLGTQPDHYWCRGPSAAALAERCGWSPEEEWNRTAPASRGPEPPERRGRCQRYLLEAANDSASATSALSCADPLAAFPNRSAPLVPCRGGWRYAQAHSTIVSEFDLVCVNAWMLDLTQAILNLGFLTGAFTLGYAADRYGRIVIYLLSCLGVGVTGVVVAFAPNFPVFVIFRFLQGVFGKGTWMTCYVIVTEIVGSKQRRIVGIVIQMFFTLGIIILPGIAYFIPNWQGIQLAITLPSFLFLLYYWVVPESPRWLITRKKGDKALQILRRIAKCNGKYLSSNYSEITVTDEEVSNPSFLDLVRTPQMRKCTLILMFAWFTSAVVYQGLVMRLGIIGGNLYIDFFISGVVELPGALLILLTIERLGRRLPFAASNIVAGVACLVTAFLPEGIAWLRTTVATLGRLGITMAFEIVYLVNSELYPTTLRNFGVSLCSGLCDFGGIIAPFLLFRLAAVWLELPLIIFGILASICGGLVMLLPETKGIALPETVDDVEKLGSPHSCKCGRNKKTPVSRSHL
# Method: (§1) All experiments were carried out in transporter-overexpressing HEK293 cells. OCT1-, OCT2-, NET-, DAT-, and SERT-overexpressing cells as well as the empty-vector transfected control cell line were generated as described earlier,[26]−[28] whereas the OCT3-overexpressing HEK293 cells were generous gift of from Drs. Koepsell and Gorbulev (University of Würzburg, Germany). All cells were cultivated in Dulbecco’s modified Eagle’s medium (DMEM) supplemented with 10% (v/v) FCS, penicillin (100 U/mL), and streptomycin (100 μg/mL) and kept in culture for no longer than 30 passages.
# (§2) As for the transport experiments, 300,000 HEK293 cells were plated in poly-D-lysine-coated 24-well plates 2 days ahead of the experiment. On every plate, two wells of empty vector (EV)-transfected cells were used as a control to account for the passive influx of the model substrate, and two wells of transporter-overexpressing cells were used to determine the noninhibited uptake of the model substrate. Cells were initially washed once with 37 °C HBSS+ and then incubated with 2 μM model substrate (0.2 μM for MPP^+ uptake by MATs) with and without 20 μM inhibitor for 5 min. For concentration-dependent inhibition experiments, the cells were incubated with increasing inhibitor concentrations. The incubation was terminated by aspiration of the buffer before cells were washed twice with ice-cold HBSS+ and lysed in 80% acetonitrile. Cell lysates were transferred into a black 96-well plate for the fluorescence measurement of ASP^+ or used for sample preparation for LC–MS/MS analysis. […] Fluorescence quantification was performed in technical duplicates.
# (§3) Transporter-mediated net uptake was calculated as the difference between uptake in transporter-overexpressing cells and that in the empty-vector-transfected control. […] Vmax is the maximum transport velocity, while Km is defined as the substance concentration that is required to reach half of vmax. The ratio of vmax over Km is termed intrinsic clearance Clint. For inhibition experiments, the transport activity was calculated by using the following equation [drawing 1]
# (§4) SubstrateEV refers to the passive uptake of model substrates into the control cells and substratenoninhibited is the uptake in transporter-overexpressing cells without the presence of any inhibitor. The percent inhibition values are then calculated as described in the following [drawing 2]
# (§5) For concentration inhibition experiments, the transporter activity was plotted against the log10 of inhibitor concentrations, and the data were fitted by the following equation to determine IC50 values [drawing 3]
# (§6) Y refers to the transporter activity, whereas Ymax is the maximum and Ymin is the minimal transporter activity. X is the log10 of inhibitor concentrations, IC50 is the half-maximal inhibitory concentration, and hill slope is the slope factor.
# OCT1 = target: T2, OCT1 (Homo sapiens, UniProt O15245); experiment: Inhibition of model substrate uptake in OCT1-overexpressing HEK293 cells; format: cell-based; parameters: expressed in transfected cells; host or cells: HEK293; conditions: for ASP+ inhibition [%]: OCT1, 20 μM inhibitor, 2 μM ASP+, 5 min, mean of three experiments; for selectivity ratio at 5 min: OCT1-overexpressing HEK293 cells, pH 7.4, OCT1, ratio of the IC50 values of the two enantiomers of the drug, read-out: x-fold Stereoselectivity
# T2 sequence (O15245 1-554): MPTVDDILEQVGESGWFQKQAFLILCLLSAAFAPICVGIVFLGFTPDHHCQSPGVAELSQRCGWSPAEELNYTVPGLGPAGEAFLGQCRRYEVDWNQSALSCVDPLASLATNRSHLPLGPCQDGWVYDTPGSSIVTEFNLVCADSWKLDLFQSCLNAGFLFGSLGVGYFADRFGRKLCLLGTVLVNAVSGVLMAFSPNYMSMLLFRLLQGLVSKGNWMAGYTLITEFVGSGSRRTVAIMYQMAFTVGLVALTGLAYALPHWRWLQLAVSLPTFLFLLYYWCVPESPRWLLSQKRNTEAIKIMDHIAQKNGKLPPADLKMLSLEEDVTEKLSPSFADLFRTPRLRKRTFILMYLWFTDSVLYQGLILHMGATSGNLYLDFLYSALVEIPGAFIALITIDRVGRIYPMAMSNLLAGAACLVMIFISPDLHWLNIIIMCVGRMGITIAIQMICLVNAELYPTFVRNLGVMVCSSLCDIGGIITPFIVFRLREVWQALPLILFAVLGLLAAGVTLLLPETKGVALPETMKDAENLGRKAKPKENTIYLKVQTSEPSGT
# Method: Koepsell and Gorbulev (University of Würzburg, Germany).
# Fluorescence quantification was performed in technical duplicates.
# OCT2 = target: T3, OCT2 (Homo sapiens, UniProt O15244); experiment: Inhibition of model substrate uptake in OCT2-overexpressing HEK293 cells; conditions: for IC50: IC50, OCT2, Table S5, 2 μM ASP+ as model substrate, 5 min; for selectivity ratio at 5 min: OCT2-overexpressing HEK293 cells
# T3 sequence (O15244 1-555): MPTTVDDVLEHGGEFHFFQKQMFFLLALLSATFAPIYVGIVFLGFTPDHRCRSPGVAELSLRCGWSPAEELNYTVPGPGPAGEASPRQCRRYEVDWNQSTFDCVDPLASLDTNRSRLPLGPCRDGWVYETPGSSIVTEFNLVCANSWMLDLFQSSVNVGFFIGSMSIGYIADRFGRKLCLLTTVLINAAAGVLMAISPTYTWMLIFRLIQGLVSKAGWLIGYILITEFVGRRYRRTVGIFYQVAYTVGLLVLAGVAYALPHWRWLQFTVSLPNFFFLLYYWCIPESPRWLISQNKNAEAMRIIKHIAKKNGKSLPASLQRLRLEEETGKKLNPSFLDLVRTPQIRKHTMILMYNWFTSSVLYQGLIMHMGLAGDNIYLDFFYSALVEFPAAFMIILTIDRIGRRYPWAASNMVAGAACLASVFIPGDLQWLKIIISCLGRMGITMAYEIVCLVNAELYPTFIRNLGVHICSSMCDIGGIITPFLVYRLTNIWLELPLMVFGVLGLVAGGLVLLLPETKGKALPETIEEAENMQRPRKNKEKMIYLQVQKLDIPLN
# Method: as §1, §2, §3, §4, §5, §6
# [1] = OCT3, 20 μM inhibitor, 2 μM ASP+, 5 min
# [2] = HEK293, 5 min, read-out: (S)-Zolmitriptan inhibition [%], OCT3, 20 μM inhibitor, 2 μM (S)-zolmitriptan, 5 min
# [3] = HEK293, 5 min, read-out: (S,S)-Ethambutol inhibition [%], OCT3, 20 μM inhibitor, 2 μM (S,S)-ethambutol, 5 min
# [4] = HEK293, OCT3, 20 μM inhibitor, 2 μM ASP+, 5 min, read-out: ASP+ inhibition [%]
# [5] = HEK293, 5 min, read-out: (S)-Zolmitriptan inhibition [%]
# [6] = HEK293, 5 min, read-out: (S,S)-Ethambutol inhibition [%]
# [7] = OCT3, Table S5, 2 μM ASP+ or ethambutol as model substrate, 5 min
# [8] = OCT3, model substrate 2 μM (S)-zolmitriptan, 5 min
# [9] = OCT3, model substrate 2 μM (S,S)-ethambutol, 5 min
# [10] = OCT3, model substrate 2 μM N-ethyllidocaine, 5 min
# [11] = OCT3, 20 μM inhibitor, 2 μM (S,S)-ethambutol, 5 min
# [12] = OCT3, 20 μM inhibitor, 2 μM (S)-zolmitriptan, 5 min
# [13] = OCT2, ratio of the IC50 values of the two enantiomers of the drug
smiles,measurement,setting,value
C1CCN2C[C@@H]3C[C@@H](CN4CCCC[C@@H]34)[C@H]2C1 [(-)-Sparteine],(S)-Zolmitriptan inhibition [%],OCT3,11.0
same,"(S,S)-Ethambutol inhibition [%]",OCT3,20.7
same,ASP+ inhibition [%],OCT3; [1],0.4%
CC(C)NC[C@@H](O)COc1ccc(CC(N)=O)cc1 [(R)-Atenolol],inhibition at 20 µM,OCT3; [2],5.5%
same,inhibition at 20 µM,OCT3; [3],0.9%
same,inhibition at 20 µM,OCT3; [4],3.9%
CCN[C@H](C)Cc1cccc(C(F)(F)F)c1 [(R)-Fenfluramine],ASP+ inhibition [%],OCT1,38.4%
same,inhibition at 20 µM,OCT3; [5],55.9%
same,inhibition at 20 µM,OCT3; [6],40.7%
same,inhibition at 20 µM,OCT3; [4],7.6%
CCCNC[C@@H](O)COc1ccccc1C(=O)CCc1ccccc1 [(R)-Propafenone],inhibition at 20 µM,OCT3; [2],53.6%
same,inhibition at 20 µM,OCT3; [4],17.3%
Cc1ccc(O)c([C@H](CCN(C(C)C)C(C)C)c2ccccc2)c1 [(R)-Tolterodine],IC50,OCT2,200 nM
same,inhibition at 20 µM,OCT3; [5],97.6%
same,IC50,OCT3; [7],2300 nM
same,ASP+ inhibition [%],OCT3; [1],94%
same,IC50,OCT3; [8],570 nM
same,IC50,OCT3; [9],390 nM
same,IC50,OCT3; [10],230 nM
same,IC50,OCT3,170 nM
CNCC[C@@H](Oc1ccccc1C)c1ccccc1 [(R)-Tomoxetine],IC50,OCT2,6300 nM
same,inhibition at 20 µM,OCT3; [2],33.2%
same,"(S,S)-Ethambutol inhibition [%]",OCT3; [11],39.0%
same,ASP+ inhibition [%],OCT3; [1],1.1%
COc1ccc(CCN(C)CCC[C@](C#N)(c2ccc(OC)c(OC)c2)C(C)C)cc1OC [(R)-Verapamil],inhibition at 20 µM,OCT3; [5],42.1%
same,inhibition at 20 µM,OCT3; [6],48.9%
same,inhibition at 20 µM,OCT3; [4],8.2%
CC(C)NC[C@H](O)COc1ccc(CC(N)=O)cc1 [(S)-Atenolol],inhibition at 20 µM,OCT3; [2],-3.8%
same,inhibition at 20 µM,OCT3; [3],2.9%
same,inhibition at 20 µM,OCT3; [4],0.9%
CCN[C@@H](C)Cc1cccc(C(F)(F)F)c1 [(S)-Fenfluramine],ASP+ inhibition [%],OCT1,41.9%
same,Sumatriptan inhibition [%],"OCT1; human, pH 7.4",87.1%
same,(S)-Zolmitriptan inhibition [%],OCT3,51.9%
same,"(S,S)-Ethambutol inhibition [%]",OCT3,40.7%
same,ASP+ inhibition [%],OCT3; [1],12.7%
CCCNC[C@H](O)COc1ccccc1C(=O)CCc1ccccc1 [(S)-Propafenone],(S)-Zolmitriptan inhibition [%],OCT3; [12],62.0%
same,"(S,S)-Ethambutol inhibition [%]",OCT3; [11],76.4%
same,ASP+ inhibition [%],OCT3; [1],23.8%
Cc1ccc(O)c([C@@H](CCN(C(C)C)C(C)C)c2ccccc2)c1 [(S)-Tolterodine],IC50,OCT2,130 nM
same,(S)-Zolmitriptan inhibition [%],OCT3,82.9
same,"(S,S)-Ethambutol inhibition [%]",OCT3,89.8
same,IC50,OCT3; [7],25300 nM
same,ASP+ inhibition [%],OCT3; [1],53.5% and 54%
same,IC50,OCT3; [8],7000 nM
same,IC50,OCT3; [9],6370 nM
same,IC50,OCT3; [10],3100 nM
same,IC50,"OCT3; OCT3, model substrate 2 μM famotidine, 5 min",2310 nM
CNCC[C@H](Oc1ccccc1C)c1ccccc1 [(S)-Tomoxetine],IC50,OCT2,17100 nM
same,(S)-Zolmitriptan inhibition [%],OCT3; [12],21.1%
same,"(S,S)-Ethambutol inhibition [%]",OCT3; [11],-5.7%
same,ASP+ inhibition [%],OCT3; [1],-8.3%
COc1ccc(CCN(C)CCC[C@@](C#N)(c2ccc(OC)c(OC)c2)C(C)C)cc1OC [(S)-Verapamil],inhibition at 20 µM,OCT3; [5],57.6%
same,inhibition at 20 µM,OCT3; [6],70.7%
same,inhibition at 20 µM,OCT3; [4],20.8%
CCN1CCCC1CNC(=O)c1cc(S(=O)(=O)CC)c(N)cc1OC (stereo not shown) [Amisulpride],difference between enantiomers in the inhibition of OCT2 (in words),"OCT2; ASP+ screening, 20 μM inhibitor",noticeable differences
same,x-fold Stereoselectivity,OCT2; [13],3.2 fold
C#CCN(C)C(C)Cc1ccccc1 (stereo not shown) [Deprenyl],x-fold Stereoselectivity,"OCT2; human, pH 7.4",1.4 fold
CN(C)CCOC(C)(c1ccccc1)c1ccccn1 (stereo not shown) [Doxylamine],selectivity ratio at 5 min,OCT1; human,1.4
OCC(O)CN1CCN(c2ccccc2)CC1 (stereo not shown) [Dropropizine],x-fold Stereoselectivity,OCT2; [13],1.4 fold
O=C1c2cccc3c2[C@H](CCC3)CN1[C@@H]1CN2CCC1CC2 [Palonosetron],stereoselectivity in the inhibition of OCT2 (in words),"OCT2; ASP+ uptake, reduced inhibitor concentrations (Figure S4)",relevant stereoselectivity
same,selectivity ratio at 5 min,"OCT2; human, pH 7.4",3.2
same,x-fold Stereoselectivity,OCT3; OCT3,2.5 fold
CCCN[C@H]1CCc2nc(N)sc2C1 [Pramipexole],selectivity ratio at 5 min,OCT1; human,1.6
same,selectivity ratio at 5 min,"OCT2; human, pH 7.4",4
CC(C)(C)NC[C@H](O)COc1nsnc1N1CCOCC1 [Timolol],selectivity ratio at 5 min,"OCT2; human, pH 7.4",2
CN(C)CCc1c[nH]c2ccc(C[C@H]3COC(=O)N3)cc12 [Zolmitriptan],x-fold Stereoselectivity,OCT3; OCT3,25 fold
same,stereoselective inhibition of OCT3 (in words),"OCT3; ethambutol and zolmitriptan as substrates, 20 μM inhibitor",stereoselective inhibition
